Experimental data taken from US20040152750A1, “Novel glucagon antagonists” (priority 2002, published 2004).

SMILES: O=C(O)CCNC(=O)c1ccc(N(Cc2ccc(C3=CCCCC3)cc2)C(=O)/C=C/c2cccc(OC(F)(F)F)c2)cc1 [Example 211, 3-(4-{(4-Cyclohex-1-enylbenzyl)-[3-(3-trifluoromethoxyphenyl)acryloyl]amino}benzoylamino) -propionic acid]
- melting point: 178 to 180 °C
